Test results: patent US9833497B2, “Human originated EGF domain proteins and use of the same” (CHENGDU SOURCEBIO LIMITED-LIABILITY COMPANY, priority 2013, dated 2017)

How the values were obtained:
Format in all cases: cell-based
E. coli DH5α = test: Antibacterial activity: MIC and growth curve against E. coli DH5α in 96-well plate; settings: minimal inhibitory concentration against E. coli DH5α; 96-well plate, 5×10^5 CFU/mL, 37° C., judged after 8 h
In short: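 Log-phase DH5α (OD600 about 0.5, 37° C, 185 rpm in LB) was pelleted, resuspended in fresh LB and seeded at 5×10^5 CFU/mL with recombinant protein at 50, 25 and 12.5 μg/mL (two-fold series), in triplicate. Plates were shaken at 175 rpm, 37° C, and OD600 was read every 30 min. MIC was the lowest concentration with no growth.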

E. coli BL21 = test: MIC against Gram-negative bacteria: E. coli BL21; settings: for MIC / MIC (μg/mL) E. coli BL21: E. coli BL21; for MIC E. coli BL21 / MIC (μg/mL) E. coli BL21: 5×10^5 CFU/mL; for MIC E. coli BL21: two-fold serial dilution
In short: (§1)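 Read-out is absence of bacterial growth, with MIC set at the lowest recombinant protein concentration achieving it. Bacteria, pre-grown in LB to McFarland 0.5 and resuspended, were exposed at 5×10^5 CFU/mL to two-fold diluted human EGF domain proteins in triplicate at 37° C, 175 rpm.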

Pseudomonas aeruginosa = test: MIC against Gram-negative bacteria: Pseudomonas aeruginosa; settings: for MIC P. aeruginosa / MIC (μg/mL) P. aeruginosa: 5×10^5 CFU/mL; for MIC P. aeruginosa: two-fold serial dilution
In short: as §1

Klebsiella pneumonia = test: MIC against Gram-negative bacteria: Klebsiella pneumonia; settings: for MIC K. pneumonia / MIC (μg/mL) K. pneumonia: 5×10^5 CFU/mL; for MIC K. pneumonia: two-fold serial dilution
In short: as §1

Enterobacter cloacae = test: MIC against Gram-negative bacteria: Enterobacter cloacae; settings: for MIC E. cloacae / MIC (μg/mL) E. cloacae: 5×10^5 CFU/mL; for MIC E. cloacae: two-fold serial dilution
In short: as §1

Aeromonas hydrophila = test: MIC against Gram-negative bacteria: Aeromonas hydrophila; settings: for MIC A. hydrophila / MIC (μg/mL) A. hydrophila: 5×10^5 CFU/mL; for MIC A. hydrophila: two-fold serial dilution
In short: as §1

Citrobacter diversus = test: MIC against Gram-negative bacteria: Citrobacter diversus; settings: for MIC C. diversus / MIC (μg/mL) C. diversus: 5×10^5 CFU/mL; for MIC C. diversus: two-fold serial dilution
In short: as §1

Moraxella catarrhalis = test: MIC against Gram-negative bacteria: Moraxella catarrhalis; settings: for MIC M. catarrhalis / MIC (μg/mL) M. catarrhalis: 5×10^5 CFU/mL; for MIC M. catarrhalis: two-fold serial dilution
In short: as §1

Proteus mirabilis = test: MIC against Gram-negative bacteria: Proteus mirabilis; settings: for MIC P. mirabilis / MIC (μg/mL) P. mirabilis: 5×10^5 CFU/mL; for MIC P. mirabilis: two-fold serial dilution
In short: as §1

Proteus vulgaris = test: MIC against Gram-negative bacteria: Proteus vulgaris; settings: for MIC P. vulgaris / MIC (μg/mL) P. vulgaris: 5×10^5 CFU/mL; for MIC P. vulgaris: two-fold serial dilution
In short: as §1

Serratia marcescens = test: MIC against Gram-negative bacteria: Serratia marcescens; settings: for MIC S. marcescens / MIC (μg/mL) S. marcescens: 5×10^5 CFU/mL; for MIC S. marcescens: two-fold serial dilution
In short: as §1

[1] = P. aeruginosa, 10 h cultivation at 37° C.
[2] = K. pneumonia, 10 h cultivation at 37° C.
[3] = E. cloacae, 10 h cultivation at 37° C.
[4] = A. hydrophila, 10 h cultivation at 37° C.
[5] = C. diversus, 10 h cultivation at 37° C.
[6] = M. catarrhalis, 10 h cultivation at 37° C.
[7] = P. mirabilis, 10 h cultivation at 37° C.
[8] = P. vulgaris, 10 h cultivation at 37° C.
[9] = S. marcescens, 10 h cultivation at 37° C.

Question: Which MIC (E. coli DH5α) does the source give for “PRT934 (DKNECLSNPCQNGGTCDNLVNGYRCTCKKGFKGYNCQ; listed as Homo sapiens)” here?
Answer: 12.5 µg/mL

Question: What about the MIC (E. coli BL21; 10 h cultivation at 37° C.) of the same substance?
Answer: 25 µg/mL

Question: And the MIC (Pseudomonas aeruginosa; [1])?
Answer: 50 µg/mL

Question: And the MIC (Klebsiella pneumonia; [2])?
Answer: 12.5 µg/mL

Question: What about the MIC (Enterobacter cloacae; [3]) of the same substance?
Answer: 50 µg/mL

Question: And the MIC (Aeromonas hydrophila; [4])?
Answer: 25 µg/mL

Question: What about the MIC (Citrobacter diversus; [5]) of the same substance?
Answer: 25 µg/mL

Question: And the MIC (Moraxella catarrhalis; [6])?
Answer: 12.5 µg/mL

Question: What about the MIC (Proteus mirabilis; [7]) of the same substance?
Answer: 50 µg/mL

Question: What about the MIC (Proteus vulgaris; [8]) of the same substance?
Answer: 12.5 µg/mL

Question: What about the MIC (Serratia marcescens; [9]) of the same substance?
Answer: 50 µg/mL

Question: How did the MIC (E. coli DH5α) turn out when “PRT1136 (KQQFCQESLSSEFCSGHGKCLSEAWSKTYSCHCQPPFSGKYCQ; listed as Homo sapiens)” was run?
Answer: 50 µg/mL

Question: What about the “MIC E. coli BL21” value (E. coli BL21; 10 h cultivation at 37° C.) of the same substance?
Answer: 12.5 µg/mL

Question: What about the “MIC P. aeruginosa” value (Pseudomonas aeruginosa; 10 h cultivation at 37° C.) of the same substance?
Answer: 50 µg/mL

Question: What about the “MIC K. pneumonia” value (Klebsiella pneumonia; 10 h cultivation at 37° C.) of the same substance?
Answer: 12.5 µg/mL

Question: What about the “MIC E. cloacae” value (Enterobacter cloacae; 10 h cultivation at 37° C.) of the same substance?
Answer: 50 µg/mL

Question: What about the “MIC A. hydrophila” value (Aeromonas hydrophila; 10 h cultivation at 37° C.) of the same substance?
Answer: 12.5 µg/mL

Question: What about the “MIC C. diversus” value (Citrobacter diversus; 10 h cultivation at 37° C.) of the same substance?
Answer: 50 µg/mL

Question: What about the “MIC M. catarrhalis” value (Moraxella catarrhalis; 10 h cultivation at 37° C.) of the same substance?
Answer: 12.5 µg/mL

Question: What about the “MIC P. mirabilis” value (Proteus mirabilis; 10 h cultivation at 37° C.) of the same substance?
Answer: 25 µg/mL

Question: And the “MIC P. vulgaris” value (Proteus vulgaris; 10 h cultivation at 37° C.)?
Answer: 50 µg/mL

Question: And the “MIC S. marcescens” value (Serratia marcescens; 10 h cultivation at 37° C.)?
Answer: 12.5 µg/mL

Question: What does the source list for “PRT928 (NIDNCDPDPCHHGQCQDGIDSYTCICNPGYMGAICS; listed as Homo sapiens)”?
Answer: MIC (E. coli DH5α): 25 µg/mL; MIC (E. coli BL21; 10 h cultivation at 37° C.): 12.5 µg/mL; MIC (Pseudomonas aeruginosa; [1]): 25 µg/mL; MIC (Klebsiella pneumonia; [2]): 12.5 µg/mL; MIC (Enterobacter cloacae; [3]): 25 µg/mL; MIC (Aeromonas hydrophila; [4]): 12.5 µg/mL; MIC (Citrobacter diversus; [5]): 25 µg/mL; MIC (Moraxella catarrhalis; [6]): 12.5 µg/mL; MIC (Proteus mirabilis; [7]): 12.5 µg/mL; MIC (Proteus vulgaris; [8]): 25 µg/mL; MIC (Serratia marcescens; [9]): 25 µg/mL

Question: How did the MIC (E. coli DH5α) turn out when “PRT15 (GDHPCLPNPCHGGAPCQNLEAGRFHCQCPPGRVGPTCA; listed as Homo sapiens)” was run?
Answer: 25 µg/mL

Question: What about the “MIC (μg/mL) E. coli BL21” value (E. coli BL21; 96-well plate, 37° C., 10 h) of the same substance?
Answer: 50 µg/mL

Question: And the “MIC (μg/mL) P. aeruginosa” value (Pseudomonas aeruginosa; Pseudomonas aeruginosa, 96-well plate, 37° C., 10 h)?
Answer: 25 µg/mL

Question: What about the “MIC (μg/mL) K. pneumonia” value (Klebsiella pneumonia; Klebsiella pneumonia, 96-well plate, 37° C., 10 h) of the same substance?
Answer: 12.5 µg/mL

Question: What about the “MIC (μg/mL) E. cloacae” value (Enterobacter cloacae; Enterobacter cloacae, 96-well plate, 37° C., 10 h) of the same substance?
Answer: 50 µg/mL

Question: And the “MIC (μg/mL) A. hydrophila” value (Aeromonas hydrophila; Aeromonas hydrophila, 96-well plate, 37° C., 10 h)?
Answer: 12.5 µg/mL

Question: And the “MIC (μg/mL) C. diversus” value (Citrobacter diversus; Citrobacter diversus, 96-well plate, 37° C., 10 h)?
Answer: 25 µg/mL

Question: And the “MIC (μg/mL) M. catarrhalis” value (Moraxella catarrhalis; Moraxella catarrhalis, 96-well plate, 37° C., 10 h)?
Answer: 12.5 µg/mL

Question: What about the “MIC (μg/mL) P. mirabilis” value (Proteus mirabilis; Proteus mirabilis, 96-well plate, 37° C., 10 h) of the same substance?
Answer: 12.5 µg/mL

Question: And the “MIC (μg/mL) P. vulgaris” value (Proteus vulgaris; Proteus vulgaris, 96-well plate, 37° C., 10 h)?
Answer: 12.5 µg/mL

Question: And the “MIC (μg/mL) S. marcescens” value (Serratia marcescens; Serratia marcescens, 96-well plate, 37° C., 10 h)?
Answer: 25 µg/mL

Question: Which results are given for “PRT152 (LPCPGGTERPCGGYGQCEGEGTRGGSGHCDCQAGYGGEACG; listed as Homo sapiens)”?
Answer: MIC (E. coli DH5α): 12.5 µg/mL; MIC (μg/mL) E. coli BL21 (E. coli BL21; 10 h cultivation at 37° C.): 12.5 µg/mL; MIC (μg/mL) P. aeruginosa (Pseudomonas aeruginosa; [1]): 12.5 µg/mL; MIC (μg/mL) K. pneumonia (Klebsiella pneumonia; [2]): 12.5 µg/mL; MIC (μg/mL) E. cloacae (Enterobacter cloacae; [3]): 12.5 µg/mL; MIC (μg/mL) A. hydrophila (Aeromonas hydrophila; [4]): 12.5 µg/mL; MIC (μg/mL) C. diversus (Citrobacter diversus; [5]): 25 µg/mL; MIC (μg/mL) M. catarrhalis (Moraxella catarrhalis; [6]): 12.5 µg/mL; MIC (μg/mL) P. mirabilis (Proteus mirabilis; [7]): 25 µg/mL; MIC (μg/mL) P. vulgaris (Proteus vulgaris; [8]): 12.5 µg/mL; MIC (μg/mL) S. marcescens (Serratia marcescens; [9]): 12.5 µg/mL

Question: With “PRT1122 (DVDECLSDPCLHGGTCSDTVAGYICRCPETWGGRDCS; listed as Homo sapiens)” as the substance, how does the MIC (E. coli DH5α) read?
Answer: 50 µg/mL

Question: And the “MIC E. coli BL21” value (E. coli BL21; 10 h cultivation at 37° C.)?
Answer: 12.5 µg/mL

Question: And the “MIC P. aeruginosa” value (Pseudomonas aeruginosa; 10 h cultivation at 37° C.)?
Answer: 50 µg/mL

Question: What about the “MIC K. pneumonia” value (Klebsiella pneumonia; 10 h cultivation at 37° C.) of the same substance?
Answer: 12.5 µg/mL

Question: What about the “MIC E. cloacae” value (Enterobacter cloacae; 10 h cultivation at 37° C.) of the same substance?
Answer: 50 µg/mL

Question: And the “MIC A. hydrophila” value (Aeromonas hydrophila; 10 h cultivation at 37° C.)?
Answer: 25 µg/mL

Question: And the “MIC C. diversus” value (Citrobacter diversus; 10 h cultivation at 37° C.)?
Answer: 12.5 µg/mL

Question: What about the “MIC M. catarrhalis” value (Moraxella catarrhalis; 10 h cultivation at 37° C.) of the same substance?
Answer: 50 µg/mL

Question: And the “MIC P. mirabilis” value (Proteus mirabilis; 10 h cultivation at 37° C.)?
Answer: 12.5 µg/mL

Question: What about the “MIC P. vulgaris” value (Proteus vulgaris; 10 h cultivation at 37° C.) of the same substance?
Answer: 50 µg/mL

Question: And the “MIC S. marcescens” value (Serratia marcescens; 10 h cultivation at 37° C.)?
Answer: 12.5 µg/mL

Question: Which results are given for “PRT1179 (DIDECASNPCLNGGHCQNEINRFQCLCPTGFSGNLCQ; listed as Homo sapiens)”?
Answer: MIC (E. coli DH5α): 12.5 µg/mL; MIC E. coli BL21 (E. coli BL21; 10 h cultivation at 37° C.): 50 µg/mL; MIC P. aeruginosa (Pseudomonas aeruginosa; 10 h cultivation at 37° C.): 25 µg/mL; MIC K. pneumonia (Klebsiella pneumonia; 10 h cultivation at 37° C.): 12.5 µg/mL; MIC E. cloacae (Enterobacter cloacae; 10 h cultivation at 37° C.): 50 µg/mL; MIC A. hydrophila (Aeromonas hydrophila; 10 h cultivation at 37° C.): 25 µg/mL; MIC C. diversus (Citrobacter diversus; 10 h cultivation at 37° C.): 12.5 µg/mL; MIC M. catarrhalis (Moraxella catarrhalis; 10 h cultivation at 37° C.): 25 µg/mL; MIC P. mirabilis (Proteus mirabilis; 10 h cultivation at 37° C.): 50 µg/mL; MIC P. vulgaris (Proteus vulgaris; 10 h cultivation at 37° C.): 25 µg/mL; MIC S. marcescens (Serratia marcescens; 10 h cultivation at 37° C.): 12.5 µg/mL
